Test results from patent US10045961B2, “Use of sting agonists to treat chronic hepatitis B virus infection” (DREXEL UNIVERSITY, priority 2013, dated 2018).
“Also recorded” adds a separate entry of the source.

Tests used:
[1] = system: HBV DNA in AML12HBV10 cells; test: Blockade of type I IFN receptor (IFNAR1 antibody) in AML12HBV10 cells, HBV DNA by real-time PCR; format: cell-based, hepatitis B virus; settings: AML12HBV10 cells pre-incubated with 10 μg/ml IFNAR1 antibody; mIFN-α directly or conditioned media from DMXAA-treated RAW264.7 cells
Method: AML12HBV10 cells cultured in absence of tetracycline for 1 day, were incubated either with or without 10 μg/ml of a monoclonal antibody against type I interferon receptor IFNAR1 (Ab INFAR) at 37° C. for 1 h, followed by treatment for 2 days with the indicated concentrations of mIFN-α (FIG. 7A) or 50% of conditioned media harvested from RAW264.7 cells (treated with the indicated concentrations of DMXAA for 12 h) (FIG. 7B). Cytolplasmic HBV DNA were quantified by a real-time PCR assay and data (mean±standard deviation, N=4) were presented as percentage of mock-treated controls (NT). AML12HBV10 cells cultured in the absence of tetracycline were treated with the indicated concentrations of IL-1, IL-6 or TNF-α for 4 days (FIG. 7C). Cytoplasmic HBV core DNA was analyzed by Southern blot hybridization.

IκBα = test: Western blot of IκBα degradation in RAW264.7 cells; format: cell-based, mouse; settings: 125 μM DMXAA
Description: (§1) Total cellular proteins were fractioned by SDS-PAGE and transferred onto PVDF membranes. Total and phosphorylated STING, TBK1, p38, JNK and Erk as well as IkB-α were detected by Western blot assays with their specific antibodies. β-actin served as a loading control.

[2] = system: HBV DNA replication in AML12HBV10 cells; test: Direct treatment of AML12HBV10 cells, cytoplasmic HBV core DNA by Southern blot; settings: for HBV DNA replication, direct treatment: AML12HBV10 cells treated directly for 2 days, cytoplasmic HBV core DNA; for HBV DNA replication, cytokine treatment: AML12HBV10 cells treated for 4 days
Description: AML12HBV10, an immortalized murine hepatocyte (AML12)-derived cell line supporting high level of HBV replication in a tetracycline (tet)-inducible manner, was maintained as described in Xu C, et al. Interferons accelerate decay of replication-competent nucleocapsids of hepatitis B virus.
HBV core DNA extraction from AML12HBV10 cells as well as analyses by Southern blot hybridization and real-time PCR assays were as described previously in Xu C, et al. Interferons accelerate decay of replication-competent nucleocapsids of hepatitis B virus. […] Total cellular RNA was extracted using TRIzol reagent (Invitrogen). HBV RNA was analyzed by Northern blot hybridization with an α-^32P-UTP-labeled full-length minus-stranded RNA probe. HBV capsid and capsid associated viral DNA was analyzed by a native agarose gel electrophoresis followed by transfer to a nitrocellulose membrane. HBV capsids were detected by probing the membrane with an antibody against HBV core protein followed by visualizing with LI-COR Odyssey system. Capsid-associated DNA was detected by hybridization with radioactively labeled HBV riboprobe.
(§4) The assay system was first validated with known TLR agonists. […] Twenty-four hours later, the cells were treated with the indicated concentrations of TLR agonists (direct treatment) (FIG. 1B). […] Cytoplasmic HBV core DNA was analyzed by Southern blot hybridization two days post treatment.
(§5) AMLHBV10 cells, grown in Dulbecco's Modification of Eagle's Medium (DMEM)/F12 medium with 1 μg/ml of tetracycline were seeded in 12-well plate at density of 1×10^5 cell/well for 1 day in absence of tetracycline to release HBV replication. […] HBV core DNA was extracted from AML12HBV10 cells 2 days post treatment, and detected by Southern blot assay.
Cytoplasmic HBV core DNA was analyzed by Southern blot hybridization. NT controls were as described in FIG. 1B (FIG. 3B). […] AML12HBV10 cells treated with the indicated concentrations of mouse alpha IFN (mIFN-α) for 2 days served as positive controls. Cytoplasmic HBV core DNA was analyzed by Southern blot hybridization (FIG. 3D).

MAPK pathways = test: Western blot of MAPK pathway activation (phosphorylated p38α, JNK, ERK) in RAW264.7 cells; format: cell-based, mouse
Description: as §1

[3] = system: interferon stimulated genes (ISGs) OAS1b and viperin; test: HBV hydrodynamic mouse model, intrahepatic ISG mRNA (OAS1b, viperin); format: in vivo, NOD/SCID mice; settings: single 25 mg/kg intraperitoneal dose, 24 h
Method: (§2) Ten-week-old female NOD/SCID mice were purchased from Vital River Laboratory Animal Technology Co. Ltd. All experiments were conducted with Institutional Animal Care and Use Committee approval. To establish HBV hydrodynamic model, 13.5 μg of plasmid pTmcsHBV1.3 expressing 1.3mer HBV genome and 4.5 μg of pCMV-SB expressing the Sleeping Beauty transposase were injected through tail vein, according to procedures previously described. To test the efficacy of DMXAA in vivo, 7 days post injection, mice were treated with either DMXAA (in PBS with 7.5% sodium Bicarbonate) at 25 mg/kg or vehicle, via intraperitoneal injection. Mice were sacrificed 24 h after treatment. Intrahepatic HBV core DNA was extracted and quantified by using a real-time PCR assay. Intrahepatic total RNA was extracted and the interferon stimulated genes (ISGs) OAS1b and viperin mRNAs were determined by real-time RT-PCR assay. Weight of individual mouse was monitored before and 24 h after the treatment.
(§3) To further validate the antiviral effects of DMXAA in vivo, NOD/SCID mice were hydrodynamically injected with HBV 1.3mer plasmid to establish HBV replication in hepatocytes. […] (FIG. 9A) Twenty-four hours post treatment, HBV core DNA was extracted from livers and analyzed by a real-time PCR assay. […] (FIGS. 9B and 9C) Total RNA was extracted from livers and mRNA levels of OAS1b and viperin were analyzed by real-time RT-PCR assay. […]

[4] = system: HBV replication in human hepatoma cells (HepDES19); test: Conditioned medium from DMXAA-treated THP-1hSTINGS162 cells on DES19 human hepatoma cells, HBV core DNA by real time PCR; settings: media from THP1-hSTING/S162 cells treated 12 hrs, 6 days
Method: Additionally, THP-1hSTINGS162 cells were treated with DMXAA for 12 hrs, conditioned medium with indicated dilution were then transferred to DES19, a human hepatoma cell line harboring HBV replication. HBV core DNA was extracted 6 days post treatment, and quantified by real time PCR assay. HBV DNA expression levels (means±standard deviations, N=3) were expressed as percentage relative to mock treated control. DES19 cells treated with IFN-α served as positive control (FIG. 10B).

HBV capsids = test: HBV core protein, capsids and capsid-associated DNA in AML12HBV10 cells after indirect treatment; format: cell-based, hepatitis B virus; settings: 2 days; for amount of HBV capsid protein: Western blot
Method: HBV core DNA extraction from AML12HBV10 cells as well as analyses by Southern blot hybridization and real-time PCR assays were as described previously in Xu C, et al. Interferons accelerate decay of replication-competent nucleocapsids of hepatitis B virus. J Virol 2010; 84:9332-40, and Campagna M R, et al. Sulfamoylbenzamide Derivatives Inhibit the Assembly of Hepatitis B Virus Nucleocapsids. J Virol 2013. Total cellular RNA was extracted using TRIzol reagent (Invitrogen). HBV RNA was analyzed by Northern blot hybridization with an α-^32P-UTP-labeled full-length minus-stranded RNA probe. HBV capsid and capsid associated viral DNA was analyzed by a native agarose gel electrophoresis followed by transfer to a nitrocellulose membrane. HBV capsids were detected by probing the membrane with an antibody against HBV core protein followed by visualizing with LI-COR Odyssey system. Capsid-associated DNA was detected by hybridization with radioactively labeled HBV riboprobe.
In order to map the HBV replication step(s) being inhibited by DMXAA-induced antiviral response in macrophages, AML12HBV10 cells were treated with conditioned media harvested from TLR agonist- or DMXAA-treated RAW264.7 cells. […]. The AML12HBV10 cells were harvested 2 days after treatment for the following analysis: (FIG. 4A) Intracellular HBV RNA was determined by Northern blot (pgRNA, pre-genomic RNA, envRNAs, viral mRNAs specifying envelope proteins. 18S ribosomal RNA (rRNA) served as loading controls); (FIG. 4B) HBV core protein was determined by Western blot assay using total cell lysate (β-actin served as a loading control); the amounts of HBV capsids (FIG. 4C) and capsid-associated HBV DNA (FIG. 4D) were determined by a native agarose gel assay; and (FIG. 4E) Cytoplasmic HBV core DNA was determined by Southern blot hybridization.

[5] = HBV hydrodynamic mouse model, body weight; format: in vivo, NOD/SCID mice; settings: single 25 mg/kg intraperitoneal dose, 24 h; data not shown
Method: as §2

[6] = system: proinflammatory cytokines (IL6, IL1, IL10, TNF-α, IL12) and chemokine CXCL10; test: qRT-PCR of proinflammatory cytokine and chemokine mRNA in RAW264.7 cells
Method: (§6) For cytokine gene expression analysis, total RNA was extracted using TRIzol reagent. cDNAs were synthesized using SuperScript III (Invitrogen). Quantitative real-time PCR analysis was performed using a LightCycler 480 II (Roche).
(§7) The amounts of mRNA specifying the specific cytokines and chemokines were quantified by real-time RT-PCR assays. Data (mean±standard deviation, N=3) were expressed as fold induction of gene expression relative to untreated controls.

IFN-β mRNA = test: qRT-PCR of IFN-β mRNA in RAW264.7 cells
Method: as §6, §7

TBK1 = test: Western blot of TBK1 phosphorylation in RAW264.7 cells; format: cell-based, mouse; settings: 125 μM DMXAA
Description: as §1

[7] = system: HBV DNA replication in AML12HBV10 cells; test: Indirect treatment: conditioned media from treated RAW264.7 macrophages applied to AML12HBV10 cells, HBV core DNA by Southern blot; settings: AML12HBV10 cells treated 2 days with 50% conditioned media from RAW264.7 cells treated 12 h
Method: as §4, §5
Intracellular HBV RNA was determined by Northern blot (ribosomal RNA served as loading control). HBV core protein was determined by Western blot assay using antibody against carboxyl terminal 14 amino acid of HBV core protein (β-actin served as loading control). HBV nucleocapsids were examined by a particle gel assay to detect both the intact nucleocapsids and capsid-associated HBV DNA. Encapsidated HBV (core DNA) replication intermediates (RC, DSL and SS) were determined by Southern blot assay.
Using the assay system described above, 75 flavonoids in MicroSource compound collection (MicroSource Discovery Systems, Inc.) were tested again. […] Cytoplasmic HBV core DNA was analyzed by Southern blot hybridization. […] AML12HBV10 cells treated with the indicated concentrations of mouse alpha IFN (mIFN-α) for 2 days served as positive controls. Cytoplasmic HBV core DNA was analyzed by Southern blot hybridization (FIG. 3D).

[8] = system: HBV DNA in AML12HBV10 cells; test: Conditioned media from shSTING RAW264.7 cells on AML12HBV10 cells, HBV core DNA by real time PCR; format: cell-based, hepatitis B virus; settings: 2 days
HBV = HBV DNA hydrodynamic mouse model, intrahepatic HBV core DNA; format: in vivo, NOD/SCID mice; settings: single 25 mg/kg intraperitoneal dose, 24 h after treatment
Method: as §2, §3

Molecule: IFN-α
- antiviral response after blockade of type I IFN receptor [1]: significantly reduced

Molecule: Cc1ccc2c(=O)c3cccc(CC(=O)O)c3oc2c1C [DMXAA, 5,6-dimethylxanthenone-4-acetic acid]
- degradation of IκBα (IκBα): induced degradation of IκBα
- HBV DNA replication, direct treatment [2]: does not inhibit HBV DNA replication
- antiviral response after blockade of type I IFN receptor [1]: significantly attenuated
- time at which activation of MAPK pathways (phosphorylated p38α, JNK, ERK) was evident (MAPK pathways): 90 min
- OAS1b expression in liver [3]: significantly induced
- viperin expression in liver [3]: significantly induced
- HBV replication in human hepatoma cells, conditioned media [4]: efficiently suppressed HBV replication
- amounts of HBV DNA replication intermediates (HBV capsids): decreased
- amount of HBV capsid protein (HBV capsids): reduced the amounts of HBV capsid protein
- reduction of average body weight [5]: approximately 8%
- time of peak of inflammatory cytokine response (IL-1 and IL-10) [6]: ≥ 6 h
- IFN and inflammatory cytokine response profile ([6]; qRT-PCR, DMXAA compared with TLR agonists): predominant IFN response, but less vigorous inflammatory cytokine response
- time of peak of IFN-β response (IFN-β mRNA): 2 h
- IFN-β mRNA expression relative to TLR1/2, TLR3 or TLR7 agonists (IFN-β mRNA; 125 μM, 2 h post treatment): approximately 100 fold
- phosphorylation of TBK1 (TBK1): efficiently induced phosphorylation of TBK1
- HBV DNA replication, indirect treatment [7]: strong indirect anti-HBV activity; also recorded: inhibits HBV DNA replication in the mouse hepatocytes in a dose-dependent manner
- antiviral activity against HBV with STING knockdown cells [8]: significantly attenuated
- reduction of intrahepatic HBV core DNA versus vehicle (HBV): 1.3 log

Molecule: TNF-α
- HBV DNA replication, cytokine treatment [2]: inhibited HBV DNA replication

Molecule: O=c1cc(-c2ccccc2O)oc2cc(O)ccc12 [7, 2′-dihydroxyflavone]
- HBV DNA replication, direct treatment [2]: not direct
- HBV DNA replication, indirect treatment [7]: indirect, but not direct, antiviral activity against HBV
- HBV DNA replication, indirect treatment ([7]; listed as 7, 2′ dihydroxyflavone): induces antiviral activity against HBV

Molecule: CCNCc1nc2c(N)nc3ccccc3c2n1CC(C)(C)O [gardiquimod]
- HBV DNA replication, direct treatment [2]: did not apparently inhibit HBV DNA replication
- HBV DNA replication, indirect treatment [7]: potently inhibited HBV DNA replication

Molecule: CCN(CC)CCOc1ccc2c(c1)C(=O)c1cc(OCCN(CC)CC)ccc1-2 [tilorine, 2,7-Bis[2-(diethylamino)ethoxy]-9-fluorenone]
- HBV DNA replication, direct treatment [2]: neither directly nor indirectly inhibited HBV replication
- HBV DNA replication, indirect treatment [7]: neither directly nor indirectly inhibited HBV replication

Molecule: Pam3CSK4
- HBV DNA replication, direct treatment [2]: did not apparently inhibit HBV DNA replication
- amount of HBV capsid protein (HBV capsids): to lesser extents
- HBV DNA replication, indirect treatment [7]: potently inhibited HBV DNA replication

Molecule: poly I:C
- HBV DNA replication, direct treatment [2]: did not apparently inhibit HBV DNA replication
- amount of HBV capsid protein (HBV capsids): to lesser extents
- HBV DNA replication, indirect treatment [7]: potently inhibited HBV DNA replication

B1: IL-6: Recombinant murine IL-6 from PBL InterferonSource (protein, UniProt P08505 25-211, looked up)
Interleukin-6: FPTSQVRRGDFTEDTTPNRPVYTTSQVGGLITHVLWEIVEMRKELCNGNSDCMNNDDALAENNLKLPEIQRNDGCYQTGYNQEICLLKISSGLLEYHSYLEYMKNNLKDNKKDKARVLQRDTETLIHIFNQEVKDLHKIVLPTPISNALLTDKLESQKEWLRTKTIQFILKSLEEFLKVTLRSTRQT
- HBV DNA replication, cytokine treatment [2]: only TNF-α inhibited HBV DNA replication
